# Assay results: ChEMBL document CHEMBL1201862, “PubChem BioAssay data set” (2004)
# Calls of active or inactive are those of the source.
# Assays:
# [1] = target: T1, Sentrin-specific protease 8 (Homo sapiens, UniProt Q96LD8); type: functional
# T1 sequence (Q96LD8 whole entry): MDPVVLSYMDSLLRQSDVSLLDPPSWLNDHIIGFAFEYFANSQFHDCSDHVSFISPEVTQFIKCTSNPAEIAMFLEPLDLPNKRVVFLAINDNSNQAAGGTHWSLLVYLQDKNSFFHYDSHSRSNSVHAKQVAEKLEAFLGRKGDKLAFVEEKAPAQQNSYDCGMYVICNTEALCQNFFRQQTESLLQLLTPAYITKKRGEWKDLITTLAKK
# [2] = target: T1, Sentrin-specific protease 8; type: functional; remark: listed apart in the source
# Mu-type opioid receptor = Mu-type opioid receptor (Homo sapiens, UniProt P35372); type: functional, cell-based;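 further: U2OS cells with beta-arrestin recruitment to OPRM1 by beta-gal complementation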
# Mu-type opioid receptor, sequence (P35372 whole entry): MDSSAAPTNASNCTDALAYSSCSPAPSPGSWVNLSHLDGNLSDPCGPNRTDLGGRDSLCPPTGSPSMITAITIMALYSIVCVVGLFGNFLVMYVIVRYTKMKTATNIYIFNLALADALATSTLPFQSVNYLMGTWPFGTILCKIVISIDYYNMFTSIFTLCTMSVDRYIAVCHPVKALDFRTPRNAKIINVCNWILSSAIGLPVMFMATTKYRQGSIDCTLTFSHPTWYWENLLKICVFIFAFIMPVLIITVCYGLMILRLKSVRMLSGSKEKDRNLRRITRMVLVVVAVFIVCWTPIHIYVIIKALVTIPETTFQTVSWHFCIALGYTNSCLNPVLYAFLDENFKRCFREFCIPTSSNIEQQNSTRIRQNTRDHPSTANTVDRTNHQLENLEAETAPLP
# [3] = target: 5-hydroxytryptamine receptor 2A (Mus musculus, UniProt P35363); type: functional, cell-based;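 further: CHO-K1 cells with tagged receptor and beta-arrestin; agonist potency measured as compound-induced activation of the receptor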
# 5-hydroxytryptamine receptor 2A, sequence (P35363 whole entry): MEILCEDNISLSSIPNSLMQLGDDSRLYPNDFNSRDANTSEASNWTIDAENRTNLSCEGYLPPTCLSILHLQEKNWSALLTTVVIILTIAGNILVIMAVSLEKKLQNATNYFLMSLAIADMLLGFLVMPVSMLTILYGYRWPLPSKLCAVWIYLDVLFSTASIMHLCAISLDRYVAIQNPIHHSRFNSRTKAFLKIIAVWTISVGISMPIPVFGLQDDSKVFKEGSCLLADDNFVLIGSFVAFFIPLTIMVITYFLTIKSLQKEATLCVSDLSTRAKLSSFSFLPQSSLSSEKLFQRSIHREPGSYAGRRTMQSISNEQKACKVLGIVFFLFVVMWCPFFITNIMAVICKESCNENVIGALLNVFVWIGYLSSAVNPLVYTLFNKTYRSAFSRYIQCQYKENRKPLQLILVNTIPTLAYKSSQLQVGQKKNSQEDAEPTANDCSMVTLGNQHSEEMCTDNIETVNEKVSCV
# BJ [4] = assay: cytotoxicity toward BJ-TERT fibroblasts, dose response, cell-based, RAS-independent, luminescence (AID 1933); type: functional; conditions: Homo sapiens
# BJ [5] = assay: cells; type: functional, cell-based; conditions: Homo sapiens
# BJ [6] = assay: cytotoxicity toward BJ-TERT-LT-ST fibroblasts, dose response, cell-based, RAS-independent, luminescence (AID 1935); type: functional; conditions: Homo sapiens;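 further: BJ fibroblasts immortalized with TERT plus LT and ST oncogenes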
# [7] = cytotoxicity toward DRD oncogenic fibroblasts, dose response, cell-based, non-viral oncogenic, luminescence (AID 1934); type: functional; conditions: Homo sapiens
# [8] = target: T2, Ubiquitin-conjugating enzyme E2 N (Homo sapiens, UniProt P61088); type: functional;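 further: Dose-response confirmation in a TR-FRET assay detecting UBC13-driven polyubiquitin chain formation, inhibition measured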
# T2 sequence (P61088 whole entry): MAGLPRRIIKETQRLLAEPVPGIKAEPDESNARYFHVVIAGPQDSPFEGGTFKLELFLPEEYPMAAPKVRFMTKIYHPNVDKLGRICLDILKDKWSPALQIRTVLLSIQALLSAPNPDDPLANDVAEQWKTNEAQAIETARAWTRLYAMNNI
# BJ [9] = assay: cytotoxicity toward Ras-transformed BJeLR fibroblasts, dose response, cell-based, alamar blue fluorescence, cherrypicked samples (AID 2631); type: functional; conditions: Homo sapiens;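 further: confirmatory dose-response assay in RAS-dependent BJ fibroblasts engineered with TERT, LT and ST, with cytotoxicity read by fluorescence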
# [10] = target: T3, DNA repair and recombination protein RAD54-like (Homo sapiens, UniProt Q92698); assay: inhibitors of human RAD54 branch migration, confirmation, biochemical, fluorescence, cherry-picked samples, dose series (AID 651657); type: functional
# T3 sequence (Q92698 whole entry): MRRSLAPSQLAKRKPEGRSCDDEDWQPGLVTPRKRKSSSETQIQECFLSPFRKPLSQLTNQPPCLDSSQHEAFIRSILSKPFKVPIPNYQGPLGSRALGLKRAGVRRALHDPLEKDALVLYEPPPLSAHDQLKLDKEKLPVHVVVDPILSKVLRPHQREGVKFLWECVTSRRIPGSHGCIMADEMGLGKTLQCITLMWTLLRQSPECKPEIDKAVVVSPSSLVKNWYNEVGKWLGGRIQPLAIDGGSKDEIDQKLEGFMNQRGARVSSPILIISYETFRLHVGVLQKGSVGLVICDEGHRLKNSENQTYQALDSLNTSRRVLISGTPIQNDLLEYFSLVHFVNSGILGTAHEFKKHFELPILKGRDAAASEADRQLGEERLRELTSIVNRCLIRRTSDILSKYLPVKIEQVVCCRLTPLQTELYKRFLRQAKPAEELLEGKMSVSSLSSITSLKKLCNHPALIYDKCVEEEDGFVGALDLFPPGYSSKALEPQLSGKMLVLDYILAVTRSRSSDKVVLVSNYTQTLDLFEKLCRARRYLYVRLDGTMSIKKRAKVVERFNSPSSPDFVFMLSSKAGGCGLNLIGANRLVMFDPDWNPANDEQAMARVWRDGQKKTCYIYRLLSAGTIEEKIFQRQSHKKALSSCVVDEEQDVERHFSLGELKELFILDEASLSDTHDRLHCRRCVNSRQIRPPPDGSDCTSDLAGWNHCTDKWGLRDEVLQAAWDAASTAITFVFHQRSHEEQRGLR
# [11] = target: T4, DNA repair protein RAD52 homolog (Homo sapiens, UniProt P43351); type: functional, biochemical
# T4 sequence (P43351 whole entry): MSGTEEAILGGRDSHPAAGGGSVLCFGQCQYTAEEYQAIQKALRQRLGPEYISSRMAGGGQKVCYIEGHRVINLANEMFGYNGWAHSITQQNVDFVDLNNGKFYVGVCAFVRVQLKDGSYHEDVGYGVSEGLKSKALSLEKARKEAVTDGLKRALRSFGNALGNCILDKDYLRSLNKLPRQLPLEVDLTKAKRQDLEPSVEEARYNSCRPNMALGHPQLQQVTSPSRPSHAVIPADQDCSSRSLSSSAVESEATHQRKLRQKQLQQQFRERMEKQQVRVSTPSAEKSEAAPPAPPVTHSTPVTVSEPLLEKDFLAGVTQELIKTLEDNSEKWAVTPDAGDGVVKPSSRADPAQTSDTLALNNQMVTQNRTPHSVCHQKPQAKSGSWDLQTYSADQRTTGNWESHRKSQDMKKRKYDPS
# Large T antigen = Large T antigen (Simian virus 40, UniProt P03070); type: functional, Betapolyomavirus macacae;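 further: Confirmatory-stage PubChem screen for compounds that inhibit SV40 T antigen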
# Large T antigen, sequence (P03070 whole entry): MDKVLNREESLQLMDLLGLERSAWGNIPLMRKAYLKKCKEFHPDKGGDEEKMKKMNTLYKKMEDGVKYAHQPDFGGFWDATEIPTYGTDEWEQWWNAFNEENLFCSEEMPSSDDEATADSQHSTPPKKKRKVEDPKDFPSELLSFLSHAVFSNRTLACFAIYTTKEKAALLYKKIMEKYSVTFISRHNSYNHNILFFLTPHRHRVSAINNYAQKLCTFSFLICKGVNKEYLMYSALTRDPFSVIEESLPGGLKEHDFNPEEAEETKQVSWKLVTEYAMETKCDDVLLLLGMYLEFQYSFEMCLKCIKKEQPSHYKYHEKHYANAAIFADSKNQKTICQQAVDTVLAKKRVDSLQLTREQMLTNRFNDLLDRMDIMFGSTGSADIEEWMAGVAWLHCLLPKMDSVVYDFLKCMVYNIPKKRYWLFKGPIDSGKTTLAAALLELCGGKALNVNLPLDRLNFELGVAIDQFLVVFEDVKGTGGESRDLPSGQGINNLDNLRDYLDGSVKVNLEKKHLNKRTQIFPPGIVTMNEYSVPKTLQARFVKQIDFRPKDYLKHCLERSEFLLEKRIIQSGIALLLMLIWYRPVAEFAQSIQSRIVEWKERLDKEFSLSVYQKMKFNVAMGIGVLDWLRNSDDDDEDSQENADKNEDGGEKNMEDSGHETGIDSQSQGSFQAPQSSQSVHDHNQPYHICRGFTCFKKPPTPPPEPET
# [12] = target: Glucose-6-phosphate 1-dehydrogenase (Homo sapiens, UniProt P11413); assay: human G6PD enzyme inhibitors, dose response, selectivity assay for P. falciparum G6PD inhibitor project, biochemical, fluorescence (AID 504792); type: functional
# Glucose-6-phosphate 1-dehydrogenase, sequence (P11413 whole entry): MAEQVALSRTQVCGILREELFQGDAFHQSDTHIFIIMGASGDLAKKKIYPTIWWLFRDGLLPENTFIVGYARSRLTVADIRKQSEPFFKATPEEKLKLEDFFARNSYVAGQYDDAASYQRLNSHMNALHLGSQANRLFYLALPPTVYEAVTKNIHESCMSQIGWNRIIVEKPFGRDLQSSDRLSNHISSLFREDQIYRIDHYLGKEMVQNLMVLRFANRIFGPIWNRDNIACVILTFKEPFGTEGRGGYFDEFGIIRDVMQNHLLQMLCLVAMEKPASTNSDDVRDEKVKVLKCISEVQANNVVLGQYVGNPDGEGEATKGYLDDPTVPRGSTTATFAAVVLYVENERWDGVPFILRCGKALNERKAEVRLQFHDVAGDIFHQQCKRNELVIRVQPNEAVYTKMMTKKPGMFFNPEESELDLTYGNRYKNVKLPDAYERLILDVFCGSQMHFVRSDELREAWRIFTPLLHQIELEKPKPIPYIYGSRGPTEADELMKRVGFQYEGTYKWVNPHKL
# Streptokinase A = target: T5, Streptokinase A (Streptococcus pyogenes serotype M1, UniProt P10520); assay: S. pyogenes streptokinase expression inhibitors, potency, dose response, plasminogen activation absorbance, OD405 (AID 1914); type: functional, Streptococcus pyogenes M1 GAS;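 further: secreted streptokinase activity via plasminogen activation per viability signal from cell pellet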
# T5 sequence (P10520 whole entry): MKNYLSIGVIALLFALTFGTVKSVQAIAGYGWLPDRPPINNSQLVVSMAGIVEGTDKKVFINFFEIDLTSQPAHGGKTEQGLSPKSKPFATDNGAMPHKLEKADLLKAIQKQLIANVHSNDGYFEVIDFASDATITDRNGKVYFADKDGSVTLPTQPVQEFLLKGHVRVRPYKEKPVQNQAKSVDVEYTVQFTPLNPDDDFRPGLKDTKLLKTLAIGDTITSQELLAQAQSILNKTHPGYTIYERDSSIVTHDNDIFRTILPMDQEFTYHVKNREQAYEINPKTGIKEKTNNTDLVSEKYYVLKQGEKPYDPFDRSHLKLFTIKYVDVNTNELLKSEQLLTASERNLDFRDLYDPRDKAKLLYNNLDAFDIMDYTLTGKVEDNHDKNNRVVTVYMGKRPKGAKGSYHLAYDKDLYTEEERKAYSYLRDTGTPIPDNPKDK
# [13] = target: T6, Calpain-2 catalytic subunit (Sus scrofa, UniProt P43367); assay: pig calpain II inhibitor potency, dose response, biochemical, fluorogenic peptide substrate (AID 1420); type: functional
# T6 sequence (P43367 whole entry): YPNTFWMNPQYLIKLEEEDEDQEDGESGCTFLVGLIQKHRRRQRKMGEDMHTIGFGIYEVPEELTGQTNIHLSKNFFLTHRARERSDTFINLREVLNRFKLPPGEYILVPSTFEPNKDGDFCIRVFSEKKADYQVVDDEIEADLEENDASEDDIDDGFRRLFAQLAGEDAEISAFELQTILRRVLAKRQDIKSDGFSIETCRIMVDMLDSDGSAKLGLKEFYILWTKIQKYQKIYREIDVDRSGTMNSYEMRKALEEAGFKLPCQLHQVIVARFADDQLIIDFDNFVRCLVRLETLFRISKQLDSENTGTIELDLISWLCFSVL
# [14] = target: T7, Methionyl-tRNA synthetase, putative (Trypanosoma brucei brucei, UniProt Q38C91); type: functional, Trypanosoma brucei brucei strain 927/4 GUTat10.1
# T7 sequence (Q38C91 whole entry): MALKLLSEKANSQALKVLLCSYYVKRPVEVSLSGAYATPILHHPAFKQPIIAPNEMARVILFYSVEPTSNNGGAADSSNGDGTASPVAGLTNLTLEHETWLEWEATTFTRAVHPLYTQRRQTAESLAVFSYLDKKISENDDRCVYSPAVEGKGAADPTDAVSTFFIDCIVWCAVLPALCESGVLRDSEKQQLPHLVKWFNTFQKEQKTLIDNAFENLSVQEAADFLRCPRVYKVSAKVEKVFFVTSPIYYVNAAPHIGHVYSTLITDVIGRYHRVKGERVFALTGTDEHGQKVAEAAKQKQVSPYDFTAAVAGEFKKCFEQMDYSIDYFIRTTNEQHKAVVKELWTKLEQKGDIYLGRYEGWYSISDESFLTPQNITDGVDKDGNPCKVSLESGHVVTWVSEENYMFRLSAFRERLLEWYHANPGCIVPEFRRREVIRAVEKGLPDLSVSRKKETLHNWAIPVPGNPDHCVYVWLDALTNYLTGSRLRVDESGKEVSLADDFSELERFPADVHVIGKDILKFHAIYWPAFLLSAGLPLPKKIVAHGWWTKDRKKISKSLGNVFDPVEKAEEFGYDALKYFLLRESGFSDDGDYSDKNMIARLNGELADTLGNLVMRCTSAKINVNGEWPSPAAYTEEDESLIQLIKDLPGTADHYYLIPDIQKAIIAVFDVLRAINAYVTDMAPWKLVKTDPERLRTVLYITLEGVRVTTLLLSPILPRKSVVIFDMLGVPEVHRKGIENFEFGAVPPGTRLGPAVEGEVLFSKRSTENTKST
# [15] = target: T7, Methionyl-tRNA synthetase, putative; type: functional, Trypanosoma brucei brucei strain 927/4 GUTat10.1; remark: listed apart in the source
# [16] = system: Streptococcus sp. 'group A'; assay: growth inhibition of control SK(-) GAS strain, dose response, counter-screen for streptokinase expression inhibitor project, luminescence, kanamycin, BacTiterGlo, confirmation (AID 1900); type: functional, organism-based
# Streptococcus = assay: Group A Streptococcus viability loss, dose response, counter-screen for streptokinase expression inhibitor project, luminescence, BacTiterGlo (AID 1915); type: functional, organism-based;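 further: potency for reduction of bacterial viability or growth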
# [17] = Luminescence Cell-Based Dose Retest to Confirm Inhibitors of Cancer Stem Cells. [Related pubchem assays (depositor defined):AID2717, AID2721]; type: functional; conditions: Homo sapiens
# [18] = Counterscreen for inhibitors of Trypanosoma brucei methionyl tRNA synthetase (MetRS): Luminescence-based cell-based high throughput dose response assay to identify compounds that are cytotoxic to Jurkat human T lymphocyte cells.; type: functional
# Genome polyprotein = Genome polyprotein (dengue virus type 2, UniProt P29990); assay: Dengue-2 NS5 methyltransferase inhibitors, primary screen, biochemical, confirmation dose response (AID 588689); type: functional
# Genome polyprotein, sequence (P29990 2492-3391 limits assumed): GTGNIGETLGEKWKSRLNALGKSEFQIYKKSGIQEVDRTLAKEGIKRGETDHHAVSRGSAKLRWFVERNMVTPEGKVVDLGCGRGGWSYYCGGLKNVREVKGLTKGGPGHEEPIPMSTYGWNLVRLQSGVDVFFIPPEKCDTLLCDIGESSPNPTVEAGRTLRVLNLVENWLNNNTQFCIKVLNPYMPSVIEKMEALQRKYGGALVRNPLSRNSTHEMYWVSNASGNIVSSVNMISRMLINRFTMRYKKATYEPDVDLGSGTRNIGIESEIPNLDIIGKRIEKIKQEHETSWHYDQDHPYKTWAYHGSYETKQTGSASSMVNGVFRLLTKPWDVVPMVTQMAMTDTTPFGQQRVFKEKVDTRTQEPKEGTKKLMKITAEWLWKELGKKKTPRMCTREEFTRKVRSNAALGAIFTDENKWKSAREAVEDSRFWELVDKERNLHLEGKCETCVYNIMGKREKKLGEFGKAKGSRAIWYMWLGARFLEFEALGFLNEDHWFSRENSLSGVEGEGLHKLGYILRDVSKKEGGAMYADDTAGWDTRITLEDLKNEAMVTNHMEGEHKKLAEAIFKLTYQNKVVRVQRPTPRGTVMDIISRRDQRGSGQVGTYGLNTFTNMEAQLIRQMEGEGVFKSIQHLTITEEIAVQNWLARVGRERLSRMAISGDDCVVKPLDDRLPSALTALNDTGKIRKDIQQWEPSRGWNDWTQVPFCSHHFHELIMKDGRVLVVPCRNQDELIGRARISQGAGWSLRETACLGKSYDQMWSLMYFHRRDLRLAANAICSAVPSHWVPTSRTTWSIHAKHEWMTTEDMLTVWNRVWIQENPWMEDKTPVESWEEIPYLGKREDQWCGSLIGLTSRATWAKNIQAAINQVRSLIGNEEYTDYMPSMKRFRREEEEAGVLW
# [19] = target: T8, Polyadenylate-binding protein 1 (Homo sapiens, UniProt P11940); assay: PABP1 MLLE–PAM2 interaction inhibitors, dose response, miRNA deadenylation inhibitor project, biochemical, fluorescence polarization, Cy5-PAM2 peptide, secondary (AID 602260); type: functional; conditions: read-out: IC50_Mean
# T8 sequence (P11940 whole entry): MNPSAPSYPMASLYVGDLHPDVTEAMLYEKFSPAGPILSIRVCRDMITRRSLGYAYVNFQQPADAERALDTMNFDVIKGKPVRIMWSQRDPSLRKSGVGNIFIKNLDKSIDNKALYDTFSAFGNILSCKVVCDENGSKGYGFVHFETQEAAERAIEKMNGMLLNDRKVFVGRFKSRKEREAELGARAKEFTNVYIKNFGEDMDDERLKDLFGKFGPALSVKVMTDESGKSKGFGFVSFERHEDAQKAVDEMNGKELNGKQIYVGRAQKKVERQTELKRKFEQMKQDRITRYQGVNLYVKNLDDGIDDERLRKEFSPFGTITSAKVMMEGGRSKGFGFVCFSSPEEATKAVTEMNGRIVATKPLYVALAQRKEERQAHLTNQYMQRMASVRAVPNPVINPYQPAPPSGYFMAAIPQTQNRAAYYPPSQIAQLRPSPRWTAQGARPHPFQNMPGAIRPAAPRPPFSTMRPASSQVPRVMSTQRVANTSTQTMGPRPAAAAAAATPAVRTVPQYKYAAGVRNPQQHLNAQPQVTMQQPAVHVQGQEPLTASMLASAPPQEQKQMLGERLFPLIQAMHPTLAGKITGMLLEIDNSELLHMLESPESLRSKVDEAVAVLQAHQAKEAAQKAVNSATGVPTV
# [20] = target: T8, Polyadenylate-binding protein 1; assay: PABP1 MLLE–PAM2 binding inhibitor potency, dose response, biochemical, fluorescence polarization, FITC-PAM2 peptide (AID 602259); type: functional; conditions: read-out: IC50_Mean
# [21] = HEp-2 cell cytotoxicity, dose response, cytotoxicity control for RSV inhibitor project, HTS (AID 2410); type: functional; conditions: human respiratory syncytial virus
smiles,measurement,setting,value
Cc1cnc(C(=O)Nc2c(-c3ccccc3)[nH][nH]c2=O)cn1,IC50,[1],20.3 µM (active)
same,IC50,[2],30.3 µM (active)
CCS(=O)(=O)N1CCC(C(=O)N2CCc3ccccc3C2)CC1,IC50,[1],> 100 µM (inactive)
same,IC50,[2],8.89 µM (active)
COc1ccc(NC(=O)CSc2ccc(-c3ccccn3)nn2)cc1OC,EC50,Mu-type opioid receptor,92.4 µM (inactive)
same,EC50,[3],0.589 µM (active)
COc1ccc(CC2(CO)CCN(C(C)COc3ccccc3)CC2)cc1 (centres undefined),EC50,Mu-type opioid receptor,92.4 µM (inactive)
same,EC50,[3],0.115 µM (active)
O=C(CCCCCN1C(=O)c2cccc3cccc(c23)C1=O)NCc1cccnc1,EC50,BJ [4],> 150 µM (not active)
same,EC50,BJ [5],3.59 µM (inconclusive)
same,EC50,BJ [6],> 150 µM (inconclusive)
same,EC50,[7],> 150 µM (not active)
same,IC50,[8],> 20 µM (inactive)
same,EC50,BJ [9],> 66.7 µM (inactive)
O=C(CN1C(=O)CSC1=O)N1CCc2ccccc2C1,IC50,[1],80.8 µM (inactive)
same,IC50,[2],10.6 µM (active)
CCOC(=O)Nc1c2ccccc2nc2ccccc12,AC50,[10],54.8 µM (active)
CCN1CCN(c2cc(C)c3cc(NC(S)=NCCCN4CCc5ccccc5C4)ccc3n2)CC1,AC50,[10],20.6 µM (active)
same,AC50,[11],3 µM (active)
COc1ccc(OC)c(Nc2nc(NCCCN(C)C)nc(N)c2[N+](=O)[O-])c1,AC50,[10],20.2 µM (active)
same,AC50,[11],7.02 µM (active)
COc1ccc(N2CSC3=C(C#N)C(c4ccc(OC)c(OC)c4)CC(=O)N3C2)c(OC)c1 (centres undefined),IC50,Large T antigen,52.7 µM (active)
same,IC50,[12],> 80 µM (inactive)
CC(CNC(=S)Nc1cc(F)cc(F)c1)CSc1ccc(Cl)cc1 (centres undefined),EC50,Streptokinase A,30 µM (active)
same,IC50,[13],13.5 µM (not active)
same,IC50,[14],15.4 µM (inactive)
same,IC50,[15],23.9 µM (inactive)
CC(CNC(S)=Nc1cc(F)cc(F)c1)CSc1ccc(Cl)cc1 (centres undefined),EC50,[16],8.3 µM (active)
same,EC50,Streptococcus,36 µM (active)
same,AC50,[17],6.24 µM (active)
same,IC50,[18],27.8 µM (inactive)
O=c1c(Cc2ccc(Cl)cc2Cl)c(O)ccn1Cc1ccncc1,IC50,[14],29.2 µM (inactive)
same,IC50,[18],83.2 µM (inactive)
same,IC50,[15],20 µM (inactive)
Oc1cc(-n2cccn2)c(O)cc1-n1cccn1,IC50,[12],33 µM (inactive)
same,IC50,Genome polyprotein,79.2 µM (active)
same,IC50,[19],> 66 µM (inactive)
same,IC50,[20],> 66 µM (inactive)
O=C(Nc1ccc(C(=O)O)cc1)/C(=C\C=C\c1ccccc1)NC(=O)c1cccc(Br)c1,CC50,[21],33.7 µM (active)
same,IC50,[14],60.7 µM (inactive)
same,IC50,[18],83.3 µM (inactive)
same,IC50,[15],45.6 µM (inactive)
Fc1ccccc1CN1CCN(c2ncccn2)CC1,EC50,Mu-type opioid receptor,92.5 µM (inactive)
same,EC50,[3],1.26 µM (active)
